Broadly, the bioavailability is dose-corrected exposure relative to a reference, in per cent. The inhibition is the share of the control response that was lost under treatment.

A short description of data set [1]: BA test (oral absorption). The class given is in vivo. To be noted: plasma; mice or rats; oral vs intravenous administration. The protocol: Materials and methods for experiments to evaluate oral absorption (1) Experimental animals: mice or rats were used. (2) Rearing condition: mice or rats were allowed free access to solid feed and sterilized tap water. (3) Setting of dosage and grouping: Oral administration and intravenous administration were performed with the predetermined dosage. Grouping was set as below. (Dosage was changed per compound)
Oral administration 2 to 60 μmol/kg or 1 to 30 mg/kg (n=2 to 3)
Intravenous administration 1 to 30 μmol/kg or 0.5 to 10 mg/kg (n=2 to 3)
(4) Preparation of administration solutions: Oral administration was performed as suspension or solution. Intravenous administration was performed after solubilization. (5) Routes of administration: Oral administration was performed mandatory into the stomach by oral sonde. Intravenous administration was performed from caudal vein by syringes with needle. (6) Evaluation items: Blood was collected serially and concentration of a compound of the present invention in plasma was measured by LC/MS/MS. (7) Statistical analysis: About transition of concentration of a compound of the present invention in plasma, the area under the plasma concentration versus time curve (AUC) was calculated by non-linear least-squares method program, and bioavailability (BA) of a compound of the present invention was calculated from dosages and AUCs of the oral administration group and the intravenous administration group. The dilution concentration or the dilution solvent were changed as necessary.

The nature of data set [2]: Metabolism stability test. The settings on record: human liver microsomes 0.5 mg protein/mL, 30 minutes, 37° C., NADPH. Format: in vitro ADME. The protocol:
Using commercially available pooled human hepatic microsomes, a compound of the present invention is reacted for a constant time, and a remaining rate is calculated by comparing a reacted sample and an unreacted sample, thereby, a degree of metabolism in liver is assessed.
A reaction is performed (oxidative reaction) at 37° C. for 0 minute or 30 minutes in the presence of 1 mmol/L NADPH in 0.2 mL of a buffer (50 mmol/L Tris-HCl pH 7.4, 150 mmol/L potassium chloride, 10 mmol/L magnesium chloride) containing 0.5 mg protein/mL of human liver microsomes. After the reaction, 50 μL of the reaction solution is added to 100 μL of a methanol/acetonitrile=1/1 (v/v), mixed and centrifuged at 3000 rpm for 15 minutes. The compound of the present invention in the supernatant is quantified by LC/MS/MS or Solid Phase Extraction (SPE)/MS, and a remaining amount of the compound of the present invention after the reaction is calculated, letting a compound amount at 0 minute reaction time be 100%. The hydrolysis reaction is carried out in the absence of NADPH, and the glucuronidation reaction is carried out in the presence of 5 mmol/L UDP-glucuronic acid instead of NADPH, and the same operation is carried out thereafter. The dilution concentration and dilution solvent are changed as necessary.
(Liver microsomes are vesicles of endoplasmic reticulum, rich in cytochrome P450 enzymes.)

Data set [3] has as its system HDACs other than HDAC2 (HDAC2 knockout K562 cells). Description: Evaluation of HDAC2 selectivity: H3K9 histone acetylation in HDAC2 knockout K562 cells (AlphaLISA).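 Further: 0% inhibition equals DMSO-treated group.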 Format: cell-based. The settings on record: Homo sapiens, maximum concentration 83.3 μM, 100% = SAHA-treated group, read-out: maximum inhibition rate (H3K9 histone acetylation). The protocol:
Test Example 3: Evaluation of HDAC2 Selectivity
K562 cells were cultured in RPMI1640 medium (SIGMA, R8758) containing 10% FBS (Hyclone, SH30070.03) and 1% penicillin streptomycin (Nacalai Tesque, 26252-94). CompoZr (registered trademark) Zinc Finger Nuclease (Merck) targeting HDAC2 sequences was transfected into K562 cells by electroporation using Nucleofector (Lonza). The cells after transfection were subjected to limiting dilution, and DNA sequencing was performed on the cell clones in which mutations were detected by the PCR method. Cell clones lacking a base number that was not a multiple of 3 in both alleles were identified, and a single-cell cloning was performed on the cell clones to produce HDAC2 knockout K562 cells. It was confirmed that the expression of HDAC2 was not detected by Western blotting in the prepared cells.
By evaluating the H3K9 histone acetylation-enhancing activity of the test compound using HDAC2 knockout K562 cells, the inhibitory activity against HDACs other than HDAC2 was evaluated.
HDAC2 knockout K562 cells stored in liquid nitrogen were thawed and cultured in RPMI1640 medium (Nacalai Tesque, 30264-85) for 2 to 4 days. Using Echo555 (Beckman Coulter), the test compound was dispensed to the assay plate (Corning, 4513) at 37.5 nL/well, and then HDAC2 knockout K562 cells were seeded to 125 cells/4.5 μL/well, and stirred. At this time, the test compound was treated at 8 points (n=2) in the 3-fold dilution series from the maximum concentration of 83.3 μM. After culturing at 37° C. and 5% CO2 overnight, 1.5 μL/well of Lysis buffer (PerkinElmer, AL009F1) was added, and after incubating at room temperature for 15 minutes, 3 μL/well of Extraction buffer (PerkinElmer, AL009F2) was added and the mixture was incubated for 10 minutes at room temperature. Then, 5× antibody solution (prepared by diluting anti-H3K9 Acceptor beads (PerkinElmer, AL114M) 75-fold with a detection buffer prepared by diluting 10×Cell-Histone Detection buffer (PerkinElmer, AL009F3) 10-fold with ultrapure water, and diluting Biotinylated anti H3 antibody (PerkinElmer, AL118M) diluted 150 times with the detection buffer) was added at 3 μL/well, and after incubating at room temperature for 60 minutes, then 5× donor beads solution (prepared by diluting Streptavidin Donor beads (PerkinElmer, 6760002) 75 fold with the detection buffer) was added at 3 μL/well, and the mixture was incubated again at room temperature for 60 minutes, and then the emission value was measured using PHERAstar (BMG LABTECH) (excitation=680 nm, […]). […] For cell toxicity, cell viability rate was evaluated by the PrestoBlue method.
Background: Alpha assays give light when donor and acceptor beads are brought close together.

For the compound `C[C@H](F)COc1cnc(C(=O)Nc2cc(-c3ccc(F)nc3)ccc2N)cn1` (racemic) [Compound I-125], the bioavailability in data set [1] worked out at 32.1%. The “remaining rate after reaction” value in data set [2] was 80.4%. Further, the inhibition at up to 83.3 µM in data set [3] is 6%.
Taken in the same sequence, the figures for `Cn1cc(-c2cnc(C(=O)Nc3nc(-c4cccs4)ccc3N)cn2)cn1` [Compound I-017] were 19.6%, 81.8% and 5%.
In data set [1], `Cn1cc(-c2cnc(C(=O)Nc3nc(-n4cccc4)ccc3N)cn2)cn1` [Compound I-023] registered a bioavailability of 43.7%. Besides, in data set [2], the “remaining rate after reaction” value is on record as 95.3%. The inhibition at up to 83.3 µM in data set [3] is 8%.
For `Cn1cc(-c2cnc(C(=O)Nc3cc(-c4ccc(F)nc4)ccc3N)cn2)cn1` [Compound I-080], in that order: 38.4%, 84.8% and 7%.
For `N#Cc1ccc(C(=O)Nc2cc(-c3ccc(F)nc3)ccc2N)nc1` [Compound I-092], in that order: 22.4%, 103% and 6%.
As to `CCOc1cnc(C(=O)Nc2cc(-c3ccc(F)nc3)ccc2N)cn1` [Compound I-118], the bioavailability in data set [1] is 22.7%. Besides, the inhibition at up to 83.3 µM in data set [3] is 8%.
Compound `Cn1cc(-c2ccc(N)c(NC(=O)c3cnc(C4CC4)cn3)c2)cn1` [Compound I-130] came in with a bioavailability in data set [1] of 37.2%. In data set [2], the “remaining rate after reaction” value was determined as 92.9%.

The values are drawn from US20230119479A1, “A HISTONE DEACETYLASE INHIBITOR HAVING A NITROGEN-CONTAINING AROMATIC HETEROCYCLYL GROUP” (SHIONOGI & CO., LTD., priority 2019, published 2023).
